Measured values taken from US20090304692A1, “TRIAZINE COMPOUNDS AS PI3 KINASE AND MTOR INHIBITORS” (Wyeth, priority 2008, published 2009).
“And” between values parts separate entries of the source, which are not always exact repeats. Identical values can stand only once. Like-named read-outs stand apart in the source and are kept apart here.

Key:
PI3K-α = PI3K-α (Homo sapiens, UniProt P42336); experiment: PI3K-alpha fluorescence polarization assay
[1] = tested on: human prostate LNCap tumor cell line; experiment: In vitro cell culture growth assay (MTS), LNCap; details: Homo sapiens, LNCaP, 72 h, read-out: IC50 LNCap
Human mTOR (FLAG-TOR) = Human mTOR (FLAG-TOR) (Homo sapiens, UniProt P42345); experiment: mTOR kinase assay (DELFIA format, purified enzyme); assay type: biochemical; details: read-out: IC50 mTOR
PI3K-γ = PI3K-γ (Homo sapiens, UniProt P48736); experiment: PI3K-gamma fluorescence polarization assay
Sequence of PI3K-γ (P48736 whole entry, species assumed): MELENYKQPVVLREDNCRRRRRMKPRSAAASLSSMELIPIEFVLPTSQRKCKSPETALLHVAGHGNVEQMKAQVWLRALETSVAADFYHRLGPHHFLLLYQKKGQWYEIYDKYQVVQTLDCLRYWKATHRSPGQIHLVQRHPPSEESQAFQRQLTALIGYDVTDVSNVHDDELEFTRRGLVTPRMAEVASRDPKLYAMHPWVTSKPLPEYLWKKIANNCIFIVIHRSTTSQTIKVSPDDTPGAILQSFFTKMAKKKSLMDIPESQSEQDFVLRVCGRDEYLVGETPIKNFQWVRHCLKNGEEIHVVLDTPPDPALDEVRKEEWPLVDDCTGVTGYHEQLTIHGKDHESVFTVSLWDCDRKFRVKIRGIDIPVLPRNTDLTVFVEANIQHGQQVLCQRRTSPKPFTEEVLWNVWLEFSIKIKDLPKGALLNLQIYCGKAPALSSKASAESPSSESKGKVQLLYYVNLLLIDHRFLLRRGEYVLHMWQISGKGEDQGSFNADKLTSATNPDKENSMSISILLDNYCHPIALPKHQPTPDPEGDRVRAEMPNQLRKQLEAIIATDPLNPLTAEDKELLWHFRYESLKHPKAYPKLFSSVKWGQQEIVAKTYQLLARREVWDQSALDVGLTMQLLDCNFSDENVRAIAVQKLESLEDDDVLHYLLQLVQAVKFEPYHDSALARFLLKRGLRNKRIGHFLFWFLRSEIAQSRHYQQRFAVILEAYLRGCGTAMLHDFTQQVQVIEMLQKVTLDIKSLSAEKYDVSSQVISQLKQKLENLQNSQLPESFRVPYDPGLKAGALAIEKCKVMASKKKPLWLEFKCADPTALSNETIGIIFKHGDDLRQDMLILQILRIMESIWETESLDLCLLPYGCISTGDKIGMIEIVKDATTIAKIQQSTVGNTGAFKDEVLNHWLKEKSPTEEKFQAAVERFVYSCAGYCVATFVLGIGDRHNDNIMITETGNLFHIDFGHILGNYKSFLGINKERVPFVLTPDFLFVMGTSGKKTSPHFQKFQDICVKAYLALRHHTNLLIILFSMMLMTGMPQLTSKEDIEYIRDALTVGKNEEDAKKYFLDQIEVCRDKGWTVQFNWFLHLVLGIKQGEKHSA

Sequence of PI3K-α (P42336 whole entry, species assumed): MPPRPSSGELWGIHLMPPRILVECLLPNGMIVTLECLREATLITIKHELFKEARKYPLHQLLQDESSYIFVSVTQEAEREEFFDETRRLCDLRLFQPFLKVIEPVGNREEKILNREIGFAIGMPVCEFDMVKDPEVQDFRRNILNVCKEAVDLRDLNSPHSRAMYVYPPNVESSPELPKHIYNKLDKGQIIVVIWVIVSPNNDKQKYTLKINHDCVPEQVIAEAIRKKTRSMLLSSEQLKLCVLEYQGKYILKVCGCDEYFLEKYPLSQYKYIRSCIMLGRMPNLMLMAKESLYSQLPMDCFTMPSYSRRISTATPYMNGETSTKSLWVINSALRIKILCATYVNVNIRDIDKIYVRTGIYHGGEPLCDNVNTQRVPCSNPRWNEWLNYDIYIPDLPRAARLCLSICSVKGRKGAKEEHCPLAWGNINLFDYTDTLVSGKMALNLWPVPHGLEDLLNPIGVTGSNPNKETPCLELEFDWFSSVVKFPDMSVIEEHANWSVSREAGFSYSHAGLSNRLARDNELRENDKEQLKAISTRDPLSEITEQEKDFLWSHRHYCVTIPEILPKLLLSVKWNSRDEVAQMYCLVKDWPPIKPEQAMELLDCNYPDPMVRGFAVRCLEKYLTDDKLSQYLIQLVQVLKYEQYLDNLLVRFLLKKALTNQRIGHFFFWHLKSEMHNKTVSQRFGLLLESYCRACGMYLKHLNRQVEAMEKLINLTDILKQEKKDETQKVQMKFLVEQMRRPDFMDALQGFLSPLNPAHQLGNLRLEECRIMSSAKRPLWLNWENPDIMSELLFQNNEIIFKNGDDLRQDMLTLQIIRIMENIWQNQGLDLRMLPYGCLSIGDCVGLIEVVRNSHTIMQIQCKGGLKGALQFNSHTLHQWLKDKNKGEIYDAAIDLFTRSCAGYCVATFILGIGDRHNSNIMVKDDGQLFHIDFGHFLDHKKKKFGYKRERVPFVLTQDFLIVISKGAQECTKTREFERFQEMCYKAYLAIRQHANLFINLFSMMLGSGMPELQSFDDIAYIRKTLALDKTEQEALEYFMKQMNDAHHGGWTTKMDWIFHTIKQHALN
Sequence of PI3K-α (P27986 whole entry partner, species assumed): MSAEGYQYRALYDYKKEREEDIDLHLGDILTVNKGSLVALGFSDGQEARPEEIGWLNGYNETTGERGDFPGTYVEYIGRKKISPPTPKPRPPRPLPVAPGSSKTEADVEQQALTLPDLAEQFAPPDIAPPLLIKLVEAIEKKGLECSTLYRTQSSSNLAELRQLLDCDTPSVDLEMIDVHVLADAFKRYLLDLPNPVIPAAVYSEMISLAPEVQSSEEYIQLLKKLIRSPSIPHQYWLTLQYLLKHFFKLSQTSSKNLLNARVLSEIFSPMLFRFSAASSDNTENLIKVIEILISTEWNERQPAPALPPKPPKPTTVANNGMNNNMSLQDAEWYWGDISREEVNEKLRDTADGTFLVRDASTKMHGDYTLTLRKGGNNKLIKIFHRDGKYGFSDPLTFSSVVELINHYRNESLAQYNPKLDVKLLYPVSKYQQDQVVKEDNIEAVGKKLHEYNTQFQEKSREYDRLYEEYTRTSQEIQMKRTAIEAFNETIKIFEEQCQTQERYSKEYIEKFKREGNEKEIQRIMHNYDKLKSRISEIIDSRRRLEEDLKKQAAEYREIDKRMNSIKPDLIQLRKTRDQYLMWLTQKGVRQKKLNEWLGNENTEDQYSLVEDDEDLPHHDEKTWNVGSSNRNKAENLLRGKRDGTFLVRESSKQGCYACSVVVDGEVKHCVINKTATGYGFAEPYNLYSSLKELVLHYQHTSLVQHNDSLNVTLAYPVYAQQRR
Sequence of Human mTOR (FLAG-TOR) (P42345 1360-2549 limits assumed): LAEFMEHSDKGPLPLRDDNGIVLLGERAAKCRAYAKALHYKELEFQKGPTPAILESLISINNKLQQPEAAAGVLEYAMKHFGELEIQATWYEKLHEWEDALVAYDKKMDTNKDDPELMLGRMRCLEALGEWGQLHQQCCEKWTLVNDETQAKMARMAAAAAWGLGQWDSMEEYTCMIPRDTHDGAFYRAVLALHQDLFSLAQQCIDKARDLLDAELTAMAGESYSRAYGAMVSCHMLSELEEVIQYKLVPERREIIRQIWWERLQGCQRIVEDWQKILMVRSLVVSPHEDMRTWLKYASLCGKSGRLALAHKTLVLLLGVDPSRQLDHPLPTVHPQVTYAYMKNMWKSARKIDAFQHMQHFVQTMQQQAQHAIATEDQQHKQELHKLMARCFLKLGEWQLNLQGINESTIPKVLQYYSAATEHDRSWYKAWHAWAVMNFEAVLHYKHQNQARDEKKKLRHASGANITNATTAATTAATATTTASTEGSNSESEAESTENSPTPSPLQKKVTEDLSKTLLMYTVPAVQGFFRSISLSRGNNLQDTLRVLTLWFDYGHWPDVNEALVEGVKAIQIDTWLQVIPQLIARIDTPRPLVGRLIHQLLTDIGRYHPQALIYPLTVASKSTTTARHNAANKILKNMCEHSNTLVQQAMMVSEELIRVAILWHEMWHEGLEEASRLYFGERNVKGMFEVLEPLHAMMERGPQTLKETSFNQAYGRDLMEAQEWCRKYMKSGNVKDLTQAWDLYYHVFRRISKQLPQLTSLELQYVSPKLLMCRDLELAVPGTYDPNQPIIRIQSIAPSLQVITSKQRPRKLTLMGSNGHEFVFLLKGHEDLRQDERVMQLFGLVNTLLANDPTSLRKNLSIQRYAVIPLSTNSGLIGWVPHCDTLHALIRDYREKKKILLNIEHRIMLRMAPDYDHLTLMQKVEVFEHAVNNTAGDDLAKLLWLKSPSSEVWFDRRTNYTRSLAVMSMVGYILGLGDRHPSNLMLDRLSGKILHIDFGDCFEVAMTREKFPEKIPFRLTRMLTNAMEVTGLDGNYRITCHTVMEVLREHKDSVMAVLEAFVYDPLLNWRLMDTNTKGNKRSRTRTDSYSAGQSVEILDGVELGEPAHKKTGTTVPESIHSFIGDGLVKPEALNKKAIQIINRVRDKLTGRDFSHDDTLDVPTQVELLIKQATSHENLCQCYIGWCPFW

Row | Compound | IC50 (PI3K-α) [nM] | IC50 [1] [nM] | IC50 (Human mTOR (FLAG-TOR)) | IC50 (PI3K-γ) [nM] | IC50 (PI3K-α; read-out: IC50 PI3Kα) [nM] | IC50 (PI3K-γ; read-out: IC50 PI3Kγ) [nM]
1 | COCC(COC)Oc1nc(-c2ccc(NC(=O)NC3CC3)cc2)nc(N2CC3CCC(C2)O3)n1 [Example 178, 1-cyclopropyl-3-(4-{4-[2-methoxy-1-(methoxymethyl)ethoxy]-6-(8-oxa-3-azabicyclo[3.2.1]oct-3-yl)-1,3,5-triazin-2-yl}phenyl)urea] | > 10000 | 850 | 14 nM | > 10000 | – | –
2 | CC(C)Nc1nc(-c2ccc(NC(=O)Nc3ccc(CN(C)C)cc3)cc2)nc(N2C3CCC2COC3)n1 [Example 381, 1-(4-(4-(3-oxa-8-azabicyclo[3.2.1]octan-8-yl)-6-(isopropylamino)-1,3,5-triazin-2-yl)phenyl)-3-(4-((dimethylamino)methyl)phenyl)urea] | – | 140 | 5.9 nM | – | 2960 | 5400
3 | CN1CCN(c2ccc(NC(=O)Nc3ccc(-c4nc(N5CC[S+]([O-])CC5)nc(N5C6CCC5COC6)n4)cc3)cc2)CC1 [Example 426, 1-(4-(4-(3-oxa-8-azabicyclo[3.2.1]octan-8-yl)-6-sulfoxymorpholino-1,3,5-triazin-2-yl)phenyl)-3-(4-(4-methylpiperazin-1-yl)phenyl)urea] | – | 700 | 53 nM | – | 1220 | 8480
4 | O=C(Nc1ccncc1)Nc1ccc(-c2nc(N3CC4CCC(C3)O4)nc(N3[C@H](CO)CC[C@@H]3CO)n2)cc1 [Example 667, 1-(4-{4-[(2R,5S)-2,5-bis(hydroxymethyl)pyrrolidin-1-yl]-6-(8-oxa-3-azabicyclo[3.2.1]oct-3-yl)-1,3,5-triazin-2-yl}phenyl)-3-pyridin-4-ylurea] | – | 60 | 0.405 nM | – | 102 | 1080
5 | C[C@@H]1COCCN1c1nc(-c2ccc(NC(=O)Nc3ccc(CN(C)C)cc3)cc2)nc(N2CCOC[C@H]2C)n1 [Example 401, 1-(4-(4,6-bis((R)-3-methylmorpholino)-1,3,5-triazin-2-yl)phenyl)-3-(4-((dimethylamino)methyl)phenyl)urea] | – | 21 | 2 nM | – | 413 | 3250
6 | O=C(Nc1ccncc1)Nc1ccc(-c2nc(N3CCNCC3)nc(N3CC4CCC(C3)O4)n2)cc1 [Example 107, 1-(4-(4-(8-oxa-3-azabicyclo[3.2.1]octan-3-yl)-6-(piperazin-1-yl)-1,3,5-triazin-2-yl)phenyl)-3-(pyridin-4-yl)urea] | – | 1000 | 19 nM | – | 115 | 1490
7 | C[C@@H]1COCCN1c1nc(-c2ccc(NC(=O)Nc3ccc(CN4CCCC4)cc3)cc2)nc(N2CCOC[C@H]2C)n1 [Example 453, 1-(4-(4,6-bis((R)-3-methylmorpholino)-1,3,5-triazin-2-yl)phenyl)-3-(4-(pyrrolidin-1-ylmethyl)phenyl)urea] | – | 30 | 3.3 nM | – | 659 | 4270
8 | CC(C)Nc1nc(-c2ccc(NC(=O)Nc3ccncc3)cc2)nc(N2C3CCC2COC3)n1 [Example 377, 1-(4-(4-(3-oxa-8-azabicyclo[3.2.1]octan-8-yl)-6-(isopropylamino)-1,3,5-triazin-2-yl)phenyl)-3-(pyridin-4-yl)urea] | – | 90 | 3.9 nM | – | 2610 | 4720
9 | O=C(Nc1ccccc1)Nc1ccc(-c2nc(Nc3ccc(N4CCNCC4)cc3)nc(N3CC4CCC(C3)O4)n2)cc1 [Example 330, 1-(4-{4-(8-oxa-3-azabicyclo[3.2.1]oct-3-yl)-6-[(4-piperazin-1-ylphenyl)amino]-1,3,5-triazin-2-yl}phenyl)-3-phenylurea] | – | 260 | 3.3 nM and 3.4 nM | – | 42 | 827
10 | NCCNc1ccc(NC(=O)Nc2ccc(-c3nc(N4C5CCC4COC5)nc(N4C5CCC4COC5)n3)cc2)cc1 [Example 461, 1-(4-(2-aminoethylamino)phenyl)-3-(4-(4,6-di(3-oxa-8-azabicyclo[3.2.1]octan-8-yl)-1,3,5-triazin-2-yl)phenyl)urea] | – | 68 | 1.1 nM | – | 482 | 4420
11 | O=C(Nc1ccncc1)Nc1ccc(-c2nc(N3CCSCC3)nc(N3C4CCC3COC4)n2)cc1 [Example 393, 1-(4-(4-(3-oxa-8-azabicyclo[3.2.1]octan-8-yl)-6-thiomorpholino-1,3,5-triazin-2-yl)phenyl)-3-(pyridin-4-yl)urea] | – | 580 | 3.6 nM | – | 444 | 1540
12 | CC(C)Nc1nc(-c2ccc(NC(=O)Nc3ccncc3)cc2)nc(N2CC3CCC(C2)O3)n1 [Example 215, 1-(4-{4-[(1-methylethyl)amino]-6-(8-oxa-3-azabicyclo[3.2.1]oct-3-yl)-1,3,5-triazin-2-yl}phenyl)-3-pyridin-4-ylurea] | – | 30 | 1.2 nM | – | 187 | 3160
13 | NCc1ccc(NC(=O)Nc2ccc(-c3nc(N4C5CCC4COC5)nc(N4C5CCC4COC5)n3)cc2)cc1 [Example 368, 1-(4-(aminomethyl)phenyl)-3-(4-(4,6-di(3-oxa-8-azabicyclo[3.2.1]octan-8-yl)-1,3,5-triazin-2-yl)phenyl)urea] | – | 0.7 | 0.68 nM | – | 109 | 1940
14 | CCNc1nc(-c2ccc(NC(=O)Nc3cccnc3)cc2)nc(N2CC3CCC(C2)O3)n1 [Example 191, 1-{4-[4-(ethylamino)-6-(8-oxa-3-azabicyclo[3.2.1]oct-3-yl)-1,3,5-triazin-2-yl]phenyl}-3-pyridin-3-ylurea] | – | 220 | 16 nM | – | 435 | 4630
15 | CC(C)(C)OC(=O)CNC1CCN(c2nc(-c3ccc(NC(=O)Nc4ccncc4)cc3)nc(N3CC4CCC(C3)O4)n2)CC1 [Example 127, Tert-butyl 2-(1-(4-(8-oxa-3-azabicyclo[3.2.1]octan-3-yl)-6-(4-(3-pyridin-4-ylureido)phenyl)-1,3,5-triazin-2-yl)piperidin-4-ylamino)acetate] | – | 1350 | 51.5 nM | – | 1390 | 4730
16 | O=C(Nc1ccncc1)Nc1ccc(-c2nc(C3=CCOCC3)nc(N3C4CCC3COC4)n2)cc1 [Example 404, 1-(4-(4-(3-oxa-8-azabicyclo[3.2.1]octan-8-yl)-6-(3,6-dihydro-2H-pyran-4-yl)-1,3,5-triazin-2-yl)phenyl)-3-(pyridin-4-yl)urea] | – | 60 | 0.69 nM | – | 63 | 433
17 | C[C@@H]1COCCN1c1nc(-c2ccc(NC(=O)Nc3ccc(C(=O)N(C)C)cc3)cc2)nc(N2CCOC[C@H]2C)n1 [Example 452, 4-(3-(4-(4,6-bis((R)-3-methylmorpholino)-1,3,5-triazin-2-yl)phenyl)ureido)-N,N-dimethylbenzamide] | – | < 0.8 | 0.55 nM | – | 41 | 502
18 | CC(C)Nc1nc(-c2ccc(NC(=O)Nc3ccc(CCO)cc3)cc2)nc(N2CC3CCC(C2)O3)n1 [Example 222, 1-[4-(2-hydroxyethyl)phenyl]-3-(4-{4-[(1-methylethyl)amino]-6-(8-oxa-3-azabicyclo[3.2.1]oct-3-yl)-1,3,5-triazin-2-yl}phenyl)urea] | – | 10 | 0.5 nM | – | 152 | 572
19 | O=C(Nc1ccc(-c2nc(OCC3CCCNC3)nc(N3CC4CCC(C3)O4)n2)cc1)Nc1cccnc1 (stereo not drawn) [Example 180, 1-{4-[4-(8-oxa-3-azabicyclo[3.2.1]oct-3-yl)-6-(piperidin-3-ylmethoxy)-1,3,5-triazin-2-yl]phenyl}-3-pyridin-3-ylurea] | – | 5800 | 1.6 nM | – | 531 | 8000
20 | CN(C)CC(=O)N1CCN(c2nc(-c3ccc(NC(=O)Nc4ccncc4)cc3)nc(N3CC4CCC(C3)O4)n2)CC1 [Example 112, 1-(4-{4-[4-(N,N-dimethylglycyl)piperazin-1-yl]-6-(8-oxa-3-azabicyclo[3.2.1]oct-3-yl)-1,3,5-triazin-2-yl}phenyl)-3-pyridin-4-ylurea] | – | 300 | 12 nM | – | 488 | 777
21 | CCN1CCN(c2ccc(NC(=O)Nc3ccc(-c4nc(C5CCOCC5)nc(N5CCOC[C@H]5C)n4)cc3)cc2)CC1 [Example 428, (R)-1-(4-(4-ethylpiperazin-1-yl)phenyl)-3-(4-(4-(3-methylmorpholino)-6-(tetrahydro-2H-pyran-4-yl)-1,3,5-triazin-2-yl)phenyl)urea] | – | 1 | 1.4 nM | – | 450 | 840
22 | CCN1CCN(c2ccc(NC(=O)Nc3ccc(-c4nc(N5CCOC[C@H]5C)nc(N5CCOC[C@H]5C)n4)cc3)cc2)CC1 [Example 447, 1-(4-(4,6-bis((R)-3-methylmorpholino)-1,3,5-triazin-2-yl)phenyl)-3-(4-(4-ethylpiperazin-1-yl)phenyl)urea] | – | 8 | 1.9 nM | – | 390 | 2800
23 | C[C@@H]1COCCN1c1nc(-c2ccc(NC(=O)Nc3ccc(N4CCN(C)CC4)nc3)cc2)nc(N2C3CCC2COC3)n1 [Example 446, 1-(4-(4-(3-oxa-8-azabicyclo[3.2.1]octan-8-yl)-6-((R)-3-methylmorpholino)-1,3,5-triazin-2-yl)phenyl)-3-(6-(4-methylpiperazin-1-yl)pyridin-3-yl)urea] | – | 15 | 0.82 nM | – | 835 | 4010
24 | CN(C)Cc1ccc(NC(=O)Nc2ccc(-c3nc(N4CCSCC4)nc(N4C5CCC4COC5)n3)cc2)cc1 [Example 395, 1-(4-(4-(3-oxa-8-azabicyclo[3.2.1]octan-8-yl)-6-thiomorpholino-1,3,5-triazin-2-yl)phenyl)-3-(4-((dimethylamino)methyl)phenyl)urea] | – | 590 | 14 nM | – | 584 | 2220
